Test results taken from the supplement of paper PMC10331698.
± gives the standard deviation of the averaged measurements.

Experiments:
Test in all cases: level (log10 ratio to DMSO vehicle control); higher = higher biomarker level / cell amount than vehicle control
Details in all cases: in DMSO
[1] = compound: O=S(=O)(O)C(F)(F)C(F)(F)C(F)(F)C(F)(F)C(F)(F)C(F)(F)C(F)(F)C(F)(F)C(F)(F)C(F)(F)F [Sodium perfluorodecanesulfonate]
In short: (§1)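 Test substances went onto BioMAP Diversity Plus human primary cell co-cultures 1 h ahead of cytokine or activator stimulation, with final DMSO below 0.1% and one well per endpoint. After 24 h of incubation (MyoF 48 h; BT 72 h, or 6 d for secreted IgG), ELISA gave biomarker levels, sulforhodamine B gave cell amount and Alamar Blue gave PBMC viability/proliferation. Values were normalized to the mean of 8 same-plate DMSO wells, log10 transformed, and blinded duplicates were averaged.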

[2] = compound: FC(F)(F)C(F)(F)CNCC(F)(F)C(F)(F)F [Bis(1H,1H-perfluoropropyl)amine]
In short: as §1

[3] = compound: C=C(C)C(=O)OCCC(F)(F)C(F)(F)C(F)(F)C(F)(F)C(F)(F)C(F)(F)F [6:2 Fluorotelomer methacrylate]
In short: as §1

[4] = compound: O=S(=O)(Cl)C(F)(F)C(F)(F)C(F)(F)C(F)(F)C(F)(F)C(F)(F)C(F)(F)C(F)(F)F [Perfluoro-1-octanesulfonyl chloride]
In short: as §1

[5] = compound: FC(F)(F)C(F)(F)C(F)(F)C(F)(F)C(F)(F)C(F)(F)CC1CO1 [3-(Perfluorohexyl)-1,2-epoxypropane]
In short: as §1

[6] = compound: NS(=O)(=O)C(F)(F)C(F)(F)C(F)(F)C(F)(F)C(F)(F)C(F)(F)F [Perfluorohexanesulfonamide]
In short: as §1

| Test System | level (log10) ([1]; 1500 nM) | level (log10) ([1]; 4400 nM) | level (log10) ([1]; 13000 nM) | level (log10) ([1]; 40000 nM) | level (log10) ([2]; 6700 nM) | level (log10) ([2]; 20000 nM) | level (log10) ([2]; 60000 nM) | level (log10) ([3]; 6700 nM) | level (log10) ([3]; 20000 nM) | level (log10) ([3]; 60000 nM) | level (log10) ([4]; 6700 nM) | level (log10) ([4]; 20000 nM) | level (log10) ([4]; 60000 nM) | level (log10) ([5]; 6700 nM) | level (log10) ([5]; 20000 nM) | level (log10) ([5]; 60000 nM) | level (log10) ([6]; 6700 nM) | level (log10) ([6]; 20000 nM) | level (log10) ([6]; 60000 nM) |
| --- | --- | --- | --- | --- | --- | --- | --- | --- | --- | --- | --- | --- | --- | --- | --- | --- | --- | --- | --- |
| KF3CT:SRB | 0.006 ± 0.011 | 0 ± 0.0042 | -0.003 ± 0.0028 | 0.0095 ± 0.016 | -0.007 ± 0.0057 | -0.007 ± 0.0014 | 0.0095 ± 0.011 | -0.005 ± 0.0085 | 0 | -0.001 ± 0.0057 | -0.0095 ± 0.011 | -0.0315 ± 0.0078 | -0.026 ± 0.0028 | -0.0075 ± 0.0021 | -0.008 | 0 ± 0.013 | 0 ± 0.0099 | -0.008 ± 0.0028 | -0.014 ± 0.0042 |
| LPS:CD106/VCAM-1 | -0.0045 ± 0.029 | 0.0035 ± 0.0078 | -0.0265 ± 0.035 | -0.076 ± 0.0028 | -0.005 ± 0.0057 | 0.001 ± 0.021 | 0.0065 ± 0.0064 | 0.0165 ± 0.0092 | -0.0025 ± 0.021 | 0.0055 ± 0.018 | -0.018 ± 0.0071 | -0.0065 ± 0.0092 | -0.022 ± 0.02 | -0.002 ± 0.011 | -0.0235 ± 0.015 | -0.022 ± 0.017 | -0.029 ± 0.047 | -0.0315 ± 0.049 | -0.097 ± 0.016 |
| HDF3CGF:EGFR | -0.009 ± 0.067 | -0.0295 ± 0.0092 | -0.001 ± 0.0014 | 0.079 ± 0.0099 | -0.0205 ± 0.06 | -0.0615 ± 0.14 | 0.034 ± 0.025 | 0.004 ± 0.0071 | 0.0275 ± 0.028 | 0.0155 ± 0.0092 | -0.082 ± 0.045 | -0.0785 ± 0.015 | 0.031 ± 0.035 | -0.0135 ± 0.011 | -0.01 ± 0.011 | -0.0055 ± 0.036 | 0.0525 ± 0.0064 | 0.043 ± 0.024 | -0.103 ± 0.059 |
| 3C:CD54/ICAM-1 | 0.0115 ± 0.005 | -0.0015 ± 0.00071 | 0.0115 ± 0.021 | 0.0145 ± 0.0078 | 0 ± 0.016 | 0.001 ± 0.0085 | 0.006 ± 0.0014 | -0.003 ± 0.0042 | -0.014 ± 0.011 | 0.0025 ± 0.015 | -0.027 ± 0.0099 | -0.0215 ± 0.023 | -0.0045 ± 0.0078 | -0.0115 ± 0.00071 | -0.0275 ± 0.015 | -0.015 ± 0.011 | 0.013 ± 0.011 | 0.002 ± 0.0085 | 0.0065 ± 0.0078 |
| HDF3CGF:CXCL9/MIG | -0.0085 ± 0.022 | -0.0565 ± 0.00071 | 0.029 ± 0.0085 | 0.049 ± 0.014 | -0.002 ± 0.0028 | -0.0025 ± 0.018 | 0.004 ± 0.024 | 0.0025 ± 0.019 | 0.0095 ± 0.00071 | 0.015 ± 0.0085 | -0.0115 ± 0.019 | -0.0165 ± 0.018 | -0.0005 ± 0.026 | 0.0095 ± 0.0092 | 0.0085 ± 0.016 | -0.0085 ± 0.013 | 0.0165 ± 0.019 | 0.01 ± 0.028 | -0.061 ± 0.037 |
| 3C:HLA-DR | -0.011 ± 0.011 | -0.021 ± 0.02 | -0.018 ± 0.0085 | -0.0615 ± 0.016 | 0.006 ± 0.0028 | 0.0005 ± 0.021 | 0.0145 ± 0.03 | -0.0015 ± 0.0092 | -0.007 ± 0.0071 | -0.005 ± 0.0099 | -0.0285 ± 0.0092 | -0.013 ± 0.011 | -0.0255 ± 0.056 | -0.0005 ± 0.0035 | -0.006 ± 0.016 | 0.0025 ± 0.016 | -0.017 ± 0.0014 | -0.0555 ± 0.00071 | -0.125 ± 0.011 |
| 3C:CD62E/E-Selectin | 0.0005 ± 0.0035 | 0.002 ± 0.0071 | 0.0185 ± 0.028 | 0.057 ± 0.05 | -0.0115 ± 0.0092 | -0.0105 ± 0.022 | 0.008 ± 0.024 | -0.0145 ± 0.015 | -0.01 ± 0.033 | -0.0135 ± 0.035 | -0.017 ± 0.0071 | 0.0135 ± 0.021 | 0.11 ± 0.021 | -0.035 ± 0.013 | -0.0375 ± 0.005 | -0.0415 ± 0.0078 | -0.0065 ± 0.016 | -0.034 ± 0.0014 | -0.0595 ± 0.013 |
| 4H:VEGFR2 | 0.003 ± 0.013 | -0.03 ± 0.059 | -0.02 ± 0.073 | 0.024 ± 0.047 | 0.0065 ± 0.028 | 0.0135 ± 0.023 | -0.009 | -0.047 ± 0.034 | -0.0305 ± 0.00071 | -0.0265 ± 0.039 | 0.0185 ± 0.019 | 0.014 ± 0.0085 | 0.0265 ± 0.0078 | -0.0015 ± 0.019 | 0.0235 ± 0.011 | 0.017 ± 0.014 | -0.008 ± 0.023 | -0.023 ± 0.013 | -0.0965 ± 0.022 |
| CASM3C:PAI-I | -0.001 ± 0.0028 | -0.0165 ± 0.0064 | 0.009 ± 0.0057 | -0.0055 ± 0.021 | -0.0075 ± 0.0078 | -0.009 ± 0.0042 | 0.005 ± 0.025 | -0.01 ± 0.013 | -0.0055 ± 0.0021 | 0.007 ± 0.013 | -0.003 ± 0.0028 | -0.0095 ± 0.00071 | 0.0005 ± 0.011 | 0.0055 ± 0.005 | 0.002 ± 0.0085 | 0.017 ± 0.0042 | -0.0045 ± 0.011 | -0.008 ± 0.0042 | 0.004 ± 0.0071 |
| HDF3CGF:PAI-I | 0.0815 ± 0.042 | 0.159 ± 0.0028 | 0.129 ± 0.041 | 0.147 ± 0.038 | -0.001 ± 0.0071 | -0.0105 ± 0.013 | 0 ± 0.033 | -0.0695 ± 0.083 | -0.057 ± 0.064 | -0.0415 ± 0.057 | 0.0185 ± 0.0021 | 0.0435 ± 0.0064 | 0.0255 ± 0.032 | -0.0375 ± 0.019 | -0.022 ± 0.033 | -0.0115 ± 0.05 | -0.0075 ± 0.083 | 0.081 ± 0.0071 | -0.0365 ± 0.037 |
| HDF3CGF:Proliferation 72hr | 0.098 ± 0.023 | 0.23 ± 0.037 | 0.316 ± 0.013 | 0.301 ± 0.021 | 0.002 ± 0.041 | -0.008 | 0.028 ± 0.038 | -0.0385 ± 0.035 | -0.0525 ± 0.015 | -0.0545 ± 0.0021 | 0.126 ± 0.04 | 0.155 ± 0.1 | -0.0105 ± 0.0035 | -0.014 ± 0.052 | -0.0355 ± 0.049 | 0 ± 0.069 | 0.058 ± 0.03 | 0.0595 ± 0.0078 | -0.267 ± 0.028 |
| lMphg:IL-1alpha | 0.0345 ± 0.021 | -0.002 ± 0.028 | 0.032 ± 0.013 | 0.0505 ± 0.03 | -0.025 ± 0.0071 | -0.031 ± 0.0057 | 0.0295 ± 0.059 | -0.0445 ± 0.076 | -0.03 ± 0.02 | -0.0305 ± 0.069 | -0.0225 ± 0.033 | -0.005 ± 0.042 | 0.021 ± 0.088 | -0.0115 ± 0.046 | -0.013 ± 0.021 | -0.0015 ± 0.011 | 0.019 ± 0.052 | 0.114 ± 0.016 | 0.148 ± 0.0028 |
| MyoF:CXCL8/IL-8 | -0.04 ± 0.0071 | -0.039 ± 0.0071 | -0.021 ± 0.023 | 0.02 ± 0.044 | -0.024 ± 0.0028 | -0.003 ± 0.018 | 0.019 ± 0.033 | -0.0055 ± 0.021 | 0.051 ± 0.0057 | 0.041 ± 0.0085 | -0.005 ± 0.016 | 0.0115 ± 0.005 | 0.138 ± 0.0042 | -0.019 | -0.0205 ± 0.025 | -0.005 ± 0.031 | 0.046 ± 0.068 | 0.024 ± 0.067 | 0.0085 ± 0.015 |
| 3C:CXCL9/MIG | -0.005 ± 0.0099 | -0.018 ± 0.011 | -0.0025 ± 0.0064 | 0.001 ± 0.0057 | 0.0005 ± 0.013 | 0.003 ± 0.0071 | 0.016 ± 0.025 | -0.001 ± 0.0014 | 0.0025 ± 0.012 | 0.0105 ± 0.023 | -0.011 ± 0.0057 | -0.003 ± 0.0028 | 0.021 ± 0.018 | 0.0065 ± 0.0064 | -0.011 ± 0.0071 | 0.013 ± 0.0099 | -0.0165 ± 0.005 | -0.0055 ± 0.0021 | 0.009 ± 0.0071 |
| HDF3CGF:CD106/VCAM-1 | -0.104 ± 0.06 | -0.164 ± 0.042 | -0.0895 ± 0.049 | -0.0215 ± 0.0092 | 0.017 ± 0.017 | 0.0115 ± 0.013 | 0.009 ± 0.0085 | -0.0005 ± 0.018 | -0.0085 ± 0.0064 | -0.0395 ± 0.03 | -0.051 ± 0.04 | -0.0065 ± 0.0064 | -0.042 ± 0.0085 | -0.001 ± 0.025 | -0.01 ± 0.0057 | -0.057 ± 0.016 | -0.0505 ± 0.059 | -0.034 ± 0.042 | -0.205 ± 0.0092 |
